Measurements from US9241991B2, “Agents, compositions, and methods for treating pruritus and related skin conditions” (The Brigham and Women's Hospital, Inc., priority 2010, dated 2016).

Tests used:
TLR7 [1] = biological target: T1, TLR7 (Homo sapiens, UniProt Q9NYK1); conditions: cited from earlier work
T1 construct: host or cells: human skin, clinical use (Madan et al. 2010)
T1 sequence (Q9NYK1 27-1049): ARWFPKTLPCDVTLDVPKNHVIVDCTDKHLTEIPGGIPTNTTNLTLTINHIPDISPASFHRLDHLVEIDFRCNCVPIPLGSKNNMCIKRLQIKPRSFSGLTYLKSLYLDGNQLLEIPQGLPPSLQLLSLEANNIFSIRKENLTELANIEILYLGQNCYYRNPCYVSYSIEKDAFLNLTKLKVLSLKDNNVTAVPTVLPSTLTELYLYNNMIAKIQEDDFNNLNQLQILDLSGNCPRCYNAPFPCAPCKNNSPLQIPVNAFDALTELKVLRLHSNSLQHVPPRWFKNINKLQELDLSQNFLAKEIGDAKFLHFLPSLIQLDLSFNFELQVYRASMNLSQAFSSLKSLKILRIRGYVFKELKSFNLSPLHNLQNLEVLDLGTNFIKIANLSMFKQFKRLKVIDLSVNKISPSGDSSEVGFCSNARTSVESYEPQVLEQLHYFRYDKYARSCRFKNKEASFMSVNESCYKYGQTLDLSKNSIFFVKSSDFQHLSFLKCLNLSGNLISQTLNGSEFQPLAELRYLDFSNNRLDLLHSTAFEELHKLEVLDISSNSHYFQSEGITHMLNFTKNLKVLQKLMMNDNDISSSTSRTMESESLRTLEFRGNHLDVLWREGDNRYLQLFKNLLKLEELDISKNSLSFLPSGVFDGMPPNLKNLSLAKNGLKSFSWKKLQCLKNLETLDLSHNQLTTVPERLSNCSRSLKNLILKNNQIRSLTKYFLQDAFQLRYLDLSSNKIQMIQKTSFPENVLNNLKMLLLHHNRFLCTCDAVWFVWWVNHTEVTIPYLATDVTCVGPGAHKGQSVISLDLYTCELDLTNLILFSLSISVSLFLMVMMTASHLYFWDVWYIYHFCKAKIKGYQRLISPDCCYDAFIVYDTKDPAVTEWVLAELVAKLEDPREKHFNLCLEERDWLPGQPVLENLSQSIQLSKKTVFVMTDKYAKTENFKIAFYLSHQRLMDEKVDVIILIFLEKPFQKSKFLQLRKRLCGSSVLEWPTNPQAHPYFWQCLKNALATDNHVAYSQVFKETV

TLR7 [2] = test: Scratches after intradermal injection in the nape of the neck, WT and Tlr7-/- mice; assay type: in vivo
From the text: We next evaluated whether TLR7 plays a role in itch sensation. We counted the number of scratches (bouts) by a hindpaw of mouse following intradermal injection of pruritogenic agents in the nape of the neck.

TLR7 [3] = biological target: T2, TLR7 (Mus musculus, UniProt P58681); test: Cheek model of itch versus pain, TLR7 ligands; assay type: in vivo, mice; conditions: 20 μg intradermal into the cheek
T2 construct: We found functional TLR7 receptors in small-size DRG neurons; from tissue; host or cells: small DRG neurons of mice; nape and cheek skin of live mice (C57BL/6J background, CD1)
T2 sequence (P58681 27-1050): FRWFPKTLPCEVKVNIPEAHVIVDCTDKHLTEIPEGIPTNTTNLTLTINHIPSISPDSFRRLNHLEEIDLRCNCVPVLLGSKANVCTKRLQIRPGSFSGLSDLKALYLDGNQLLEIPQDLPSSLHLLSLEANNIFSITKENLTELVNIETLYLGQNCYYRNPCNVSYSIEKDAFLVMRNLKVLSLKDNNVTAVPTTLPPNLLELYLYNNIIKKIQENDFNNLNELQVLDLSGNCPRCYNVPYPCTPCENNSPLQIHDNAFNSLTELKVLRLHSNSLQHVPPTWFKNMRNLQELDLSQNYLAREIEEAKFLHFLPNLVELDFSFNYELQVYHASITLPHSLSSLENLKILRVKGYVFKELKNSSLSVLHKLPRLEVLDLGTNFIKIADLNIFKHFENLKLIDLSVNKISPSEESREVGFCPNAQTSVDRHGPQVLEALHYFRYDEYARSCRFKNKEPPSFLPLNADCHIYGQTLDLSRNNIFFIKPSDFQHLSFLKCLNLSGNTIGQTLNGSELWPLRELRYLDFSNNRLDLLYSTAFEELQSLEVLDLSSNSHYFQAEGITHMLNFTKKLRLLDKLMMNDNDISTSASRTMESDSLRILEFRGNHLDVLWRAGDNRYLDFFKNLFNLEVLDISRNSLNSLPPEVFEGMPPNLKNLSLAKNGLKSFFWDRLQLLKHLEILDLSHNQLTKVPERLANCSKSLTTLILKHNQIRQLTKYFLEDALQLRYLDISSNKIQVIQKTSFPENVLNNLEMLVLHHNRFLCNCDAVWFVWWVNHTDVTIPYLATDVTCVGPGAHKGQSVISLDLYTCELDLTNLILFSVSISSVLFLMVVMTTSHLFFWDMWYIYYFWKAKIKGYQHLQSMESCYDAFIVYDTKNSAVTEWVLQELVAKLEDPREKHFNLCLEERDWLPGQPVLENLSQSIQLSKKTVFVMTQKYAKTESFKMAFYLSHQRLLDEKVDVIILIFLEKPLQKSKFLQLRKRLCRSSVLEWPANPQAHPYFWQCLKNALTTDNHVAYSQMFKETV
Experimental: To distinguish itch and pain responses simultaneously, we used the cheek model by injection of chemical into cheek of mice (8). After brief anesthesia with isoflurane, we shaved mice on cheeks (approx. 5×8 mm area) two days before experiments. On the day of experiment, we injected 10 μl of reagent (50 μg compound 48/80 or 100 μg chloroquine) into the cheek and counted the number of wipes and the number of scratches for 30 min. We only counted those unilateral wipes with the forelimb that were not part of grooming behavior. One scratch was defined as a lifting of the hind paw toward the injection site on the cheek and then returning the paw to the floor or to the mouth.
To further investigate a unique role of TLR7 in itch versus pain, we used a recently developed “cheek model” of itch (Shimada, S. G. & LaMotte, R. H. Pain 139, 681-687 (2008)).

TLR7 [4] = biological target: T2, TLR7; conditions: mice; cited from earlier work
mice = test: Imiquimod-induced scratching in Trpv1-/- and mast cell-deficient SASH mice; assay type: in vivo
TLR7 [5] = biological target: T2, TLR7; test: Patch clamp recording of inward currents and action potentials in small DRG neurons, TLR7 ligands; assay type: cell-based, mice
TLR7 mRNA = TLR7 mRNA levels in cervical DRGs by quantitative PCR after siRNA; assay type: in vivo, mice; conditions: siRNA 4 μg intrathecal, P<0.05
Experimental: (§1) 4 μg siRNA targeting TLR7 ([…] (SEQ ID NO:8)) (synthesized by Dharmacon, On-target Plus) or a non-targeting control siRNA ([…] (SEQ ID NO:9)) was administered intrathecallly to wild type (CD1) mice at 24 and 48 hours before the mice received an injection of IMQ ([…]). siRNA was dissolved in RNase-free water at 1 μg/μl as stock solution and mixed with polyethyleneimine (PEI, Fermentas Inc. Hanover, USA, 0.18 μl of PEI solution for 1 μg of siRNA), 10 minutes before injection, to increase cell membrane penetration and reduce the degradation. PEI was dissolved in 5% glucose. After behavioral testing, DRG tissues were collected for quantitative PCR analysis.

TLR7 [6] = test: IMQ-induced scratches after intrathecal TLR7 siRNA; assay type: in vivo; conditions: siRNA 4 μg intrathecal with PEI 48 and 24 h before IMQ (20 mg, 20 μg elsewhere in the source), CD1 mice, vs NT siRNA; P<0.05
Experimental: as §1

itch-like scratching in cheek model (TLR7 [3]) | pain-indicative wiping in cheek model (TLR7 [3]) | neurons from WT mice that respond (TLR7 [5]; 500 μM, small DRG neurons) | action potentials in DRG neurons (TLR7 [5]; WT but not Tlr7-/- mice, 500 μM) | response of neurons from Tlr7-/- mice (TLR7 [5]; all 10 neurons) | inward currents in DRG neurons (TLR7 [5]; capsaicin-responsive DRG neurons of WT but not Tlr7-/- mice, imiquimod 20-500 μM) | Compound | pruritus on topical application (TLR7 [1]) | dose response curve of scratching (TLR7 [2]; intradermal injection, nape) | scratches in Tlr7-/- mice versus WT (TLR7 [2]; intradermal, 100 μg) | skin inflammation (TLR7 [4]) | reduction in imiquimod-induced scratching in mast cell-deficient SASH mice (mice; SASH mice vs WT control) | imiquimod-induced scratching in Trpv1-/- mice (mice; Trpv1-/- vs WT control) | TLR7 mRNA levels in cervical DRGs (TLR7 mRNA) | IMQ induced scratches (TLR7 [6])
elicited itch-like scratching | not pain-indicative wiping behavior | Eight out of 17 | induced action potentials | fail to respond | dose-dependent inward currents | CC(C)Cn1cnc2c(N)nc3ccccc3c21 [imiquimod] | frequently elicits pruritus | inverted-U-shaped dose response curve | reduced | induces psoriasis-like skin inflammation | 28% | remained unaltered | – | –
– | – | – | – | – | – | TLR7 siRNA: siRNA targeting TLR7 (CCUUACACUAUUUCCGAUA, SEQ ID NO:8), synthesized by Dharmacon, On-target Plus (chemistry not given here) | – | – | – | – | – | – | reduced levels | significantly reduced
